The values below come from US10711006B2, “Selective Bruton's tyrosine kinase inhibitor and use thereof” (HANGZHOU HERTZ PHARMACEUTICAL CO., LTD., priority 2016, dated 2020).

Molecules are shown by their SMILES.

One assay concerns the target BTK Kinase (Homo sapiens (Human), UniProt Q06187). Briefly: In-vitro Btk kinase inhibitory activity assay. It is filed as biochemical.
Another assay concerns the target hERG potassium channel (Homo sapiens (Human), UniProt Q12809). Briefly: hERG potassium channel inhibitory activity, manual patch clamp in CHO cells. Format: cell-based. The settings on record: for IC50: CHO cells stably expressing hERG, whole-cell patch clamp. (In general: hERG is a cardiac potassium channel; its block is linked to QT prolongation.)
The target of another assay is FLT3 (Homo sapiens (Human), UniProt P36888). As to the kind of experiment: Kinase selectivity experiment, FLT3. It is filed as biochemical. Particulars: read-out: Inhibitory activity against FLT3 (IC50). On the procedure: (§1) A 1× kinase base buffer and a reaction stop buffer for respective kinases in the experiment were prepared as required.
Sequence of FLT3 (P36888 27-993, species assumed): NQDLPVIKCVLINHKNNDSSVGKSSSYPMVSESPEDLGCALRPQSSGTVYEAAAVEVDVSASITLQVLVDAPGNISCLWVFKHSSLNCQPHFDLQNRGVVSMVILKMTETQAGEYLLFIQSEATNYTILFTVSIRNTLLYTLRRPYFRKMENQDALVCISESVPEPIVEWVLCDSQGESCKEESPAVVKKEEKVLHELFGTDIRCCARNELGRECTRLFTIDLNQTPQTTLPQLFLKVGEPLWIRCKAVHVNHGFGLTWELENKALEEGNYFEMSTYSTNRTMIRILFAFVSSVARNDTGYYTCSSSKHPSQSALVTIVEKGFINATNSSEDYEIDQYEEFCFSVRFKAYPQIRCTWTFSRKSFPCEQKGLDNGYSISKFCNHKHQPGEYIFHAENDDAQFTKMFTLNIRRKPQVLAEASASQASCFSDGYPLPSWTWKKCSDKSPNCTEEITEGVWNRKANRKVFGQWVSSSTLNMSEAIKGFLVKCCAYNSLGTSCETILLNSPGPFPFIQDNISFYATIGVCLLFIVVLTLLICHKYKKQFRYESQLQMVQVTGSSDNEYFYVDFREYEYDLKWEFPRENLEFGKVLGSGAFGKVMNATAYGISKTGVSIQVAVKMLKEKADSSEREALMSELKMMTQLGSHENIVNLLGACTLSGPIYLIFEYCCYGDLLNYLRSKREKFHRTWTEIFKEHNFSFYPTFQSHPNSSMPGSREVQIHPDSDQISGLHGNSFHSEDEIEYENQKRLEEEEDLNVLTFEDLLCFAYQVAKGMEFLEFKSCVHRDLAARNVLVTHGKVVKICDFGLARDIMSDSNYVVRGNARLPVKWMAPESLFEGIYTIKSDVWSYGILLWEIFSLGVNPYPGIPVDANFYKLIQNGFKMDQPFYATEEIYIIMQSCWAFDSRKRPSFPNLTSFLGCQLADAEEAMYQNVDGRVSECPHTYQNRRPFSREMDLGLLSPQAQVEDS
(§2) Preparation of Compounds to be Tested:
(§3) 2) diluting each compound at a 5-fold concentration gradient in a 96-well plate to 6 to 7 concentrations and ensuring that the drug volume in each well was 10 μl; and at the same time adding 100 μl of DMSO to prepare a blank control group and also preparing a negative control group without the enzyme substrate; and
(§4) 3) preparing another 96-well plate, adding 10 μl of each of the above compounds to 90 μl of the 1× kinase base buffer and mixing for 10 minutes to be uniform.
(§5) Preparation of the Plate to be Tested:
(§6) 1) 5 μl of the mixed solution prepared as above in the 96-well plate was taken and transferred to a 384-well plate, with two replicate wells for each compound.
(§7) 1) Preparing a 2.5× kinase solution and adding a corresponding 1× kinase base buffer;
(§8) 2) preparing a 2.5× polypeptide solution and adding FAM-labeled polypeptide and ATP in the 1× kinase base buffer; and
(§9) 3) adding 10 μl of 2.5× kinase solution to a 384-well plate to be tested, placing in a room-temperature environment for 10 minutes, and then adding 10 μl of the 2.5× polypeptide solution, reacting at 28° C. for 1 hour, and then adding 25 μl of a reaction stop buffer.
(§10) The Caliper program reads the plate and uses the data to obtain the IC50 values of the corresponding compounds against kinases.

In another assay the target is BLK (Homo sapiens (Human), UniProt P51451). As to the kind of experiment: Kinase selectivity experiment, BLK. Format: biochemical. The settings on record: read-out: Inhibitory activity against BLK (IC50). How it is done: as §1, §2, §3, §4, §5, §6, §7, §8, §9, §10
Sequence of BLK (P51451 whole entry, species assumed): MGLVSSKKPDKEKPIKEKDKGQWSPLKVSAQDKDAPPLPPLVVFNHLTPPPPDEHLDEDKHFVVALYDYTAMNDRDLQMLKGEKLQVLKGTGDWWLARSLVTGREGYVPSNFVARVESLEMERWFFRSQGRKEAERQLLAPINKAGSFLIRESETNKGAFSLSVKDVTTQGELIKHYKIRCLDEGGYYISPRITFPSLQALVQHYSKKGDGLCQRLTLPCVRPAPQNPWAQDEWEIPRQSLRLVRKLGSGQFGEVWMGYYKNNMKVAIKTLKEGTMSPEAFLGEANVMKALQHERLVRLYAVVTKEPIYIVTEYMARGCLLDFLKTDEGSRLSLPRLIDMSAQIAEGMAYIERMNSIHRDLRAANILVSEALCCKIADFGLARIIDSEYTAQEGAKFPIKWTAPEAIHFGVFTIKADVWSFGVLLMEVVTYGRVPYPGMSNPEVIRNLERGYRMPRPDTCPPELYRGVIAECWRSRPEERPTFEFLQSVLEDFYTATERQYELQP
The next assay deals with ITK (Homo sapiens (Human), UniProt Q08881). Briefly: Kinase selectivity experiment, ITK. It is filed as biochemical. The settings on record: read-out: Inhibitory activity against ITK (IC50). On the procedure: as §1, §2, §3, §4, §5, §6, §7, §8, §9, §10
Sequence of ITK (Q08881 whole entry, species assumed): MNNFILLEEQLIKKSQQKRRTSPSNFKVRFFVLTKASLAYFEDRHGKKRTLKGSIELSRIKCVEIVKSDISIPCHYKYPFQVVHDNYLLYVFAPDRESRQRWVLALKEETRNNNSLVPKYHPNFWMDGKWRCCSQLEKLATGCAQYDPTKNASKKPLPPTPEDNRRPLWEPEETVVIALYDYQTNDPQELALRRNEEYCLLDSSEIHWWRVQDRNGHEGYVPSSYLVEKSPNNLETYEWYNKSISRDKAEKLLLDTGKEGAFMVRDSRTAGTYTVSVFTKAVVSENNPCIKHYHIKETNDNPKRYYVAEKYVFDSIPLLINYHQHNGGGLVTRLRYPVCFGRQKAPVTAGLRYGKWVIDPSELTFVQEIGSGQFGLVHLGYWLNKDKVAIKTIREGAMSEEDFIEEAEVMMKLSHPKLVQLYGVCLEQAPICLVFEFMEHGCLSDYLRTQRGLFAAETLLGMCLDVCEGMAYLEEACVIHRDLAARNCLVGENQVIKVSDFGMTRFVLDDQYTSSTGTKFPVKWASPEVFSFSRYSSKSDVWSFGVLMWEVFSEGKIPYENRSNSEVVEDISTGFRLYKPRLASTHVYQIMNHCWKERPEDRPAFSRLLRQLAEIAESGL
A further assay deals with CSK (Homo sapiens (Human), UniProt P41240). As to the kind of experiment: Kinase selectivity experiment, CSK. It is filed as biochemical. The settings on record: read-out: Inhibitory activity against CSK (IC50). On the procedure:
as §1, §2, §3, §4, §5, §6, §7, §8, §9, §10

The target in another assay is HCK (Homo sapiens (Human), UniProt P08631). Briefly: Kinase selectivity experiment, HCK. Format: biochemical. The settings on record: read-out: Inhibitory activity against HCK (IC50). On the procedure:
as §1, §2, §3, §4, §5, §6, §7, §8, §9, §10

As usually defined, the IC50 is the midpoint of a concentration-inhibition curve.

Sequence of hERG potassium channel (Q12809 whole entry): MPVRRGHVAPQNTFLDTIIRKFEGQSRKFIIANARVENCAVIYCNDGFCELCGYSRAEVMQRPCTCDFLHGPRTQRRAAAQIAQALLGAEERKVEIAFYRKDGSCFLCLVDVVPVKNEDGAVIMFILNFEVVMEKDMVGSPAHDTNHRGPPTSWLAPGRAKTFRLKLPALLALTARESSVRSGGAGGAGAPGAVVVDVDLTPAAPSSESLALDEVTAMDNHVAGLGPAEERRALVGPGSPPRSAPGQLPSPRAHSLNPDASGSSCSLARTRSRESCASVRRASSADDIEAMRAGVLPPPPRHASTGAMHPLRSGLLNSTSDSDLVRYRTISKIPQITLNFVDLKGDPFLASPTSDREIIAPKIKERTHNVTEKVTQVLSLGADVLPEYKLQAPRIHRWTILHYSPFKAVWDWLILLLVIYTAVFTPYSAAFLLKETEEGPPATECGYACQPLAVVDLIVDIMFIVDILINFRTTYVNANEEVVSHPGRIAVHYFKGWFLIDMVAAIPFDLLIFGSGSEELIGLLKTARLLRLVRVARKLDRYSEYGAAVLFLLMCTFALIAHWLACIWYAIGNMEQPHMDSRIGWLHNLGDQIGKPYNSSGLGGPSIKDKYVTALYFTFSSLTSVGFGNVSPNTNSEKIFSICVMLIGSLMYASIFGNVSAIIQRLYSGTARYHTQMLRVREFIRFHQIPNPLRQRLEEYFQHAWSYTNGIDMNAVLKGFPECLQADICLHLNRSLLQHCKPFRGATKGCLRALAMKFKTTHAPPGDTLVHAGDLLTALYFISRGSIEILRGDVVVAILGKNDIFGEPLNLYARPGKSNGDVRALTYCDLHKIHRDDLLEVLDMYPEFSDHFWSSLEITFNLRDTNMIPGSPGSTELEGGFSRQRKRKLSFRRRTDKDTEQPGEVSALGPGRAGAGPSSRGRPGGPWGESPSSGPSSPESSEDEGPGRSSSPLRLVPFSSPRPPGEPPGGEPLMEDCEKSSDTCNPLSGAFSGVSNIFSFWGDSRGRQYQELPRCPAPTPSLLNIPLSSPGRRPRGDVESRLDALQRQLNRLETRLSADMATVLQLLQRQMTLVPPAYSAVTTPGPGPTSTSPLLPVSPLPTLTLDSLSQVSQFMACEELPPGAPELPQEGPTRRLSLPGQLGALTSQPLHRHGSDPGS
Sequence of HCK (P08631 whole entry, species assumed): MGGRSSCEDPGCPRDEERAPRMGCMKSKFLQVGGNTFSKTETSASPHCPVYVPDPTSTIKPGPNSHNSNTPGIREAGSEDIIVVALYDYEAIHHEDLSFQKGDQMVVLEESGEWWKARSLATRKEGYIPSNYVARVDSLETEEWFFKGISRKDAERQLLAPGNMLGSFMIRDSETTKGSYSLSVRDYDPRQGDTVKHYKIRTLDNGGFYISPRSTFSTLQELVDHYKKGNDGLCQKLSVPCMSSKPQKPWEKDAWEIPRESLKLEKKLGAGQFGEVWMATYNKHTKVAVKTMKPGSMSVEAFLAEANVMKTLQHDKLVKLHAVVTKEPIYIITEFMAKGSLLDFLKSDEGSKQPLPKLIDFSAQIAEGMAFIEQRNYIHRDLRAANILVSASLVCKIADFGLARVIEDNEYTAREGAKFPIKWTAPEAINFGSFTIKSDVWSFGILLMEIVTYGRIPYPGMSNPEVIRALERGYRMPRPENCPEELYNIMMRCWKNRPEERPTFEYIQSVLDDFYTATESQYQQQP
Sequence of BTK Kinase (Q06187 whole entry): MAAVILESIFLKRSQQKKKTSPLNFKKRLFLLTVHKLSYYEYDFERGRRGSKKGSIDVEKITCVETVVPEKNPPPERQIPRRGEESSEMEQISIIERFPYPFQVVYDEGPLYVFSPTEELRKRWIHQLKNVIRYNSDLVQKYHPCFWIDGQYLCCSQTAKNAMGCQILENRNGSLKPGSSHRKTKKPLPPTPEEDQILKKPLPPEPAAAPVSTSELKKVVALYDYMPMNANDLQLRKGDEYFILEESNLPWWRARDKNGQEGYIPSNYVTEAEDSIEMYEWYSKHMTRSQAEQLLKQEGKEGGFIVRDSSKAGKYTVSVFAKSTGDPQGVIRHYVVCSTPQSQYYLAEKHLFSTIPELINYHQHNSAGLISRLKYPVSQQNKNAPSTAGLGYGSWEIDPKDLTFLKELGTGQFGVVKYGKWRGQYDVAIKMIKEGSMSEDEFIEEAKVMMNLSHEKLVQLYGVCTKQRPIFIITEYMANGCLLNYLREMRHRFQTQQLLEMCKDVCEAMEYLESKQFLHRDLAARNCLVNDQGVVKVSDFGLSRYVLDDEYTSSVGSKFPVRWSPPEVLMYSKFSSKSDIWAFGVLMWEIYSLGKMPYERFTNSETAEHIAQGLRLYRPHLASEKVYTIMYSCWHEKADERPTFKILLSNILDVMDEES
Sequence of CSK (P41240 whole entry, species assumed): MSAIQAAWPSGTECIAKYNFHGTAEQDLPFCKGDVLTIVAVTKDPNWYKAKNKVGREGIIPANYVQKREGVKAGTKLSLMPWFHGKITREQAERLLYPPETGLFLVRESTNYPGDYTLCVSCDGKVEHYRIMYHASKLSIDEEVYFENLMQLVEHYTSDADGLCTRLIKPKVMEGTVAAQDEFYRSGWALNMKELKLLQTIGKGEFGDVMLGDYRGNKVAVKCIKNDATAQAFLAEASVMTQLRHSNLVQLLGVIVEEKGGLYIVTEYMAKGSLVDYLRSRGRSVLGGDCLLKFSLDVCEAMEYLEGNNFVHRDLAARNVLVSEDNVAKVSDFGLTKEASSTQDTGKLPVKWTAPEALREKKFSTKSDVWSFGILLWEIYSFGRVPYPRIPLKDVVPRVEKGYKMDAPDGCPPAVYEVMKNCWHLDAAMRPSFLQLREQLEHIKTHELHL

Take `C=CC(=O)N1CC[C@@H](n2nc(-c3ccc(Oc4ccccc4)nc3F)c3c(N)ncnc32)C1` [Compound 24a, (R)-1-(3-(4-amino-3-(2-fluoro-6-phenoxypyridin-3-yl)-1H-pyrazolo[3,4-d]pyrimidin-1-yl)pyrrolidin-1-yl)prop-2-en-1-one]: the IC50 is 2.5 nM against BTK Kinase; 7660 nM against hERG potassium channel; > 1000 nM on FLT3; 5.4 nM at BLK; > 1000 nM at ITK; > 1000 nM on CSK. Besides, the IC50 on HCK is > 1000 nM.

On to `C=CC(=O)N1CCC[C@@H](n2nc(-c3ccc(Oc4ccccc4)nc3)c3c(N)ncnc32)C1` [Compound 15a, (R)-1-(3-(4-amino-3-(6-phenoxypyridin-3-yl)-1H-pyrazolo[3,4-d]pyrimidin-1-yl)piperidin-1-yl) prop-2-en-1-one], for which the IC50 on BTK Kinase was 3.2 nM; against hERG potassium channel, 15500 nM; on FLT3 it was > 1000 nM; at BLK, 30 nM; on ITK, > 1000 nM; on CSK, > 1000 nM. Further, on HCK, the IC50 is > 1000 nM. Further, the “hERG IC50 relative to Compound II” value on hERG potassium channel (IC50 ratio to Compound II) is reported as 2.98 times. The “hERG IC50 relative to ibrutinib” value on hERG potassium channel (IC50 ratio to ibrutinib) turned out to be 4.41 times.
